Results as given in patent US11236147B2, “Methods and compositions for the inhibition of TRPV4” (CHILDREN'S MEDICAL CENTER CORPORATION, priority 2013, dated 2022).
Entries after “also recorded” stand apart in the source; their conditions may differ.

Experiments:
TRPV4 [1] = target: T1, TRPV4 (Rattus norvegicus, UniProt Q9ERZ8); conditions: rats; cited from earlier work
T1 construct: host or cells: rats, in vivo

TRPV4 [2] = target: T2, TRPV4 (Homo sapiens, UniProt Q9HBA0); conditions: human lung-on-a-chip microdevice, IL2-induced; cited from earlier work
T2 construct: Transient increases in intracellular calcium were detected quickly after force application in HUVE cells treated with control siRNA; endogenous in cells; host or cells: HUVE cells (ATCC) treated with control or CD98 siRNA

TRPV4 [3] = target: T3, TRPV4 (Canis lupus familiaris, UniProt A0A8I3PAV3); conditions: dog; cited from earlier work
T3 construct: host or cells: dog, in vivo

TRPV4 [4] = target: T4, TRPV4 (Mus musculus, UniProt Q9EPK8); conditions: mice; cited from earlier work
T4 construct: host or cells: mice, in vivo

TRPV4 [5] = target: T2, TRPV4; experiment: Calcium imaging: calcium influx by chemical stimulation (4α-PDD); type: cell-based
Procedure: (§1) FIG. 6A depicts a graph of the relative change in cytosolic calcium in response to static stretch (20%, 4 second arrow) in Fluo-4-loaded CE cells treated with control or CD98 siRNA. FIG. 6B depicts a graph of the average relative increases in cytosolic calcium induced by mechanical strain in HUVE cells treated with control or CD98 siRNA. FIG. 6C depicts a graph of the relative change in cytosolic calcium in response to 4α-PDD (10 μM) in Fluo-4-loaded CE cells treated with control or CD98 siRNA. FIG. 6D depicts a graph of the average relative increases in cytosolic calcium induced by chemical strain in HUVE cells treated with control or CD98 siRNA.
(§2) Specific inhibition of mechanical activation of TRPV4 activity. Moreover, TRPV4 is specifically activated by mechanical strain (12). To examine whether CD98 transducse the signal by mechanical stimulation through TRPV4, the calcium influx by mechanical stimulation was investigated. Transient increases in intracellular calcium were detected quickly after force application in HUVE cells treated with control siRNA. […] TRPV4 is also activated by chemical stimulation such as 4α-phorbol 12, 13-didecanoate (4α-PDD).
(§3) Mechanical strain application, measurement of cell orientation, Calcium Imaging were performed as described (Thodeti et al., 2009)

HUVE cells [6] = experiment: Actin rearrangement / cell orientation after 20% uniaxial cyclic strain; type: cell-based, human
Procedure: CD98 involves actin rearrangement on mechanotransduction. To confirm that CD98 translates the mechanical signal from β1-integrin to TRPV4 by mediating the binding, it was examined whether CD98 is required for the actin arrangement induced by cyclic strain. To analyze it, HUVE cells were cultured on flexible fibronectin-coated substrates and subjected to 20% uniaxial cyclic strain using a FlexrCell™ Tension Plus system. […] In contrast, this response was abolished by the treatment with CD98 siRNA (FIG. 5).
as §3
To confirm that CD98 translates the mechanical signal from β1-integrin to TRPV4 by mediating the binding, it was examined whether CD98 is required for the actin arrangement induced by cyclic strain. To analyze it, HUVE cells were cultured on flexible fibronectin-coated substrates and subjected to 20% uniaxial cyclic strain using a FlexrCell Tension Plus™ system. […] In contrast, this response was abolished by the treatment with CD98 siRNA (FIG. 5).

[7] = target: T5, binding between β1-integrin and TRPV4 (Homo sapiens, UniProt P05556+Q9HBA0); experiment: Immunoprecipitation binding assay in HEK293T cells transfected with HA-linked CD98 high homology domain; type: cell-based; conditions: HEK293T cells, 2.5, 5 μg HA-linked CD98 high homology domain vs HA vector, 24 h
T5 construct: endogenous in cells; host or cells: HEK293T cells (ATCC); only the HA-CD98 high homology domain is transfected
Procedure: 2.5, 5 μg HA-linked CD98 high homology domain or 5 μg HA vector was transfected into HEK293T cells, and the binding assay was performed 24 h later. The bottom panel gives the amount of each transgene in total cell lysates of respective transfectants. In the top or the 3rd panel, the lysates were immunoprecipitated with an anti-β1-integrin or TRPV4 antibody, and the amount of TRPV4 or β1-integrin in the precipitates was blotted with each antibodies. The 2nd or the 4th panel gives the amount of β1-integrin or TRPV4 in total cell lysates.
Immunoprecipitation. Cells were extracted in ice-cold TRITON™ buffer (50 mM Tris-HCL, pH 7.4, containing 150 mM NaCl, 1% TRITONX100™, 5 mM EDTA). Cell extracts were centrifuged at 10000 g for 15 min at 4° C. prior to being immunoprecipitated with each antibodies and DYNABEADS™ Magnetic Beads (Invitrogen) at 4° C. Subsequently the beads were isolated by magnet and washed five times with TRITON™ buffer and then were detected by SDS-PAGE and immunoblotting.
As described above, high homology domain of CD98 is important for the binging to either β1-integrin or TRPV4. […] Therefore, CD98 mediates the binding between β1-integrin and TRPV4 at focal adhesion through high homology domain of CD98.

HUVE cells [8] = experiment: Scratch wound cell migration assay; type: cell-based, human; conditions: monolayer HUVE cells, CD98 siRNA vs control siRNA
Text: (§4) CD98 mediates the binding between TRPV4 and β1-integrin at focal adhesion. The question is what the molecular mechanism is by which CD98 mediates the signaling from β1-integrin to TRPV4. CD98 is important for surface expression and clustering of β1-integrin in MCF7 cells (11). Therefore, it was examined whether CD98 mediates the binding between β1-integrin and TRPV4 using siRNA-based knockdown of CD98. […] Thus, CD98 deficiency doesn't affect the formation of focal adhesion.
It was next asked whether CD98 serves to link β1-integrin to TRPV4. […] Thus, CD98 is not required for focal adhesion formation or function. […] Although TRPV4 expression was not decreased, TRPV4 couldn't localize at focal adhesions (data not shown).

[9] = test system: binding between β1-integrin and TRPV4; experiment: Immunoprecipitation of TRPV4 / β1-integrin binding in HUVE cells after CD98 siRNA knock down; type: cell-based, human; conditions: CD98 siRNA vs control siRNA, co-immunoprecipitation
Text: (§5) The cells were transfected with control or CD98 siRNA. The amount of each component in the total cell lysates is given in the left panel. In the right lanses the cell lysates were immunoprecipitates with rabbit anti-TRPV4 (upper) or mouse anti-β1-integrin antibody (lower).
as §4
(§6) siRNA knock down of CD98. RNA interference assay was conducted with human CD98 siRNA duplexes: 5′-[…]-3′ (SEQ ID NO: 21) and 5′-[…]-3′ (SEQ ID NO: 22). Cells were transfected with 50 nM of the siRNA duplexes in Opti-MEM™ (Invitrogen) using silentFect Lipid Reagent for RNAi (BIO-RAD), according to the manufacturer's instructions.
Immunoprecipitation. Cells were extracted in ice-cold TRITON™ buffer (50 mM Tris-HCL, pH 7.4, containing 150 mM NaCl, 1% TRITONX100™, 5 mM EDTA). […] Subsequently the beads were isolated by magnet and washed five times with TRITON™ buffer and then were detected by SDS-PAGE and immunoblotting.

TRPV4 [10] = experiment: Calcium imaging: calcium influx by mechanical stimulation; type: cell-based, human; conditions: HUVE cells, CD98 siRNA vs control siRNA, Fluo-4, static stretch 20%
Procedure: as §1, §2, §3

HUVE cells [11] = experiment: Localization of TRPV4, CD98, integrin and vinculin at focal adhesions (TIRF / immunofluorescence); type: cell-based, human; conditions: CD98 siRNA
Text: TRPV4 associates with CD98 and β1-integrin at focal adhesion. The terminal 6 amino acid residues at the carboxy end of the β1-integrin cytoplasmic mediate calcium signaling and are required for rapid force induced TRPV4-mediated calcium signaling (10). It was postulated that CD98, which binds to the last 6 carboxy terminal amino acids of β1-integrin, is involved in the TRPV4 activation by β1-integrin using genetically engineered mutant integrin constructs. First, it was confirmed that CD98 binds to integrins through the region of the β1-integrin tail using β1-integrin mutant constructs to transfect HEK293T cells followed by an immunoprecipitation assay. It was also confirmed that TRPV4 also interacts with the same region of β1-integrin using the same β1-integrin mutant constructs (data not shown). To explore the binding between those molecules, whether CD98 and β1-integrin can be co-precipitated from HUVE cell lysates using anti-TRPV4 antibody was determined (FIG. 1A). TRPV4 similarly precipitates with either anti-β1-integrin or anti-CD98 antibody (FIG. 1B). Moreover, it was confirmed that TRPV4 overlapped with CD98 at vinculin positive focal adhesions by Total Internal Reflection Fluorescence (TIRF, data not shown).
siRNA knock down of CD98. RNA interference assay was conducted with human CD98 siRNA duplexes: 5′-[…]-3′ (SEQ ID NO: 21) and 5′-[…]-3′ (SEQ ID NO: 22). […]

TRPV4 [12] = experiment: TRPV4 expression in total cell lysates after CD98 knock down; type: cell-based, human; conditions: HUVE cells, CD98 siRNA
Procedure: as §5, §6

T2 sequence (Q9HBA0 whole entry): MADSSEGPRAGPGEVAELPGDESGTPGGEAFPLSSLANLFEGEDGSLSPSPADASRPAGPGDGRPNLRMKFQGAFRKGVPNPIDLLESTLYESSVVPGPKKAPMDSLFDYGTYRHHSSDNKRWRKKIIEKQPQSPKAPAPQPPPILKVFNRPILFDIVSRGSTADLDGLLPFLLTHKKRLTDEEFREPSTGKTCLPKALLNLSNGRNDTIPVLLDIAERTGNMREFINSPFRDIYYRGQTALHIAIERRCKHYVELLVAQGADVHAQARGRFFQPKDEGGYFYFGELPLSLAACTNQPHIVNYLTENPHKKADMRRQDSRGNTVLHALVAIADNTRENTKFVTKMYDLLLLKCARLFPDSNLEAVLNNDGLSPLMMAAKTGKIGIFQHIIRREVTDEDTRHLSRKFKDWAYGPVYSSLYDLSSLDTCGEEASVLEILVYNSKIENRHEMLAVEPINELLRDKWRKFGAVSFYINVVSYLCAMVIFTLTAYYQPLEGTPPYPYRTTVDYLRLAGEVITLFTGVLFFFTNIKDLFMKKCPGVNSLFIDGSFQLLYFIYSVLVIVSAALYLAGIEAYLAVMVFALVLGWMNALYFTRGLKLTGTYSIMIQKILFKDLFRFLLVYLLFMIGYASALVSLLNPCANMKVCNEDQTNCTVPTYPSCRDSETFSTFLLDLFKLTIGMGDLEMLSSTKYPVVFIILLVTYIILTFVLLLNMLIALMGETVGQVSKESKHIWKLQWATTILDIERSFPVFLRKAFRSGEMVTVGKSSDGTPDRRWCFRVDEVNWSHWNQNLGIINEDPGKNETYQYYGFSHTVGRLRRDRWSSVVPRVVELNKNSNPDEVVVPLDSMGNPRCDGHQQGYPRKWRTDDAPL
T5 sequence (Q9HBA0 whole entry, the tested form may be a part): as the sequence (Q9HBA0 whole entry) above
T5 sequence (P05556 21-798): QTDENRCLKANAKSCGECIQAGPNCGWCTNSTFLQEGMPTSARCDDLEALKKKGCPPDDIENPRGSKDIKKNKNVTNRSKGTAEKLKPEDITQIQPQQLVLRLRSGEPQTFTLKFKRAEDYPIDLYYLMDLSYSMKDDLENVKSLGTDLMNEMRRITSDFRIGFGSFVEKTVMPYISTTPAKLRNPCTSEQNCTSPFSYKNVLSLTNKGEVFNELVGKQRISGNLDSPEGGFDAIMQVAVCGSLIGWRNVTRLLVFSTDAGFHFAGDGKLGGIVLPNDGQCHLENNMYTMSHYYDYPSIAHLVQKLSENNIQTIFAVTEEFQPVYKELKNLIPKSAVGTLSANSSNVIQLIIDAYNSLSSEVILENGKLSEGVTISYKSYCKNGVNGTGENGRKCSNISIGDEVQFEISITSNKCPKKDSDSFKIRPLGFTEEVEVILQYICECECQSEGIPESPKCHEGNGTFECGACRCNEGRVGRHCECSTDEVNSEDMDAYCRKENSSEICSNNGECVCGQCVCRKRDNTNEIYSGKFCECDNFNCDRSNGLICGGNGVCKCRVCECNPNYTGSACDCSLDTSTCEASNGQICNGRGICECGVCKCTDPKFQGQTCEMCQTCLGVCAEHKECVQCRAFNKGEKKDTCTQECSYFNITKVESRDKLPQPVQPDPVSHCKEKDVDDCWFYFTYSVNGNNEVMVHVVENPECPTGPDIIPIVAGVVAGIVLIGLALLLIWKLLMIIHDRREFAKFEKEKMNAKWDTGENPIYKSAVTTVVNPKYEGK
T4 sequence (Q9EPK8 whole entry): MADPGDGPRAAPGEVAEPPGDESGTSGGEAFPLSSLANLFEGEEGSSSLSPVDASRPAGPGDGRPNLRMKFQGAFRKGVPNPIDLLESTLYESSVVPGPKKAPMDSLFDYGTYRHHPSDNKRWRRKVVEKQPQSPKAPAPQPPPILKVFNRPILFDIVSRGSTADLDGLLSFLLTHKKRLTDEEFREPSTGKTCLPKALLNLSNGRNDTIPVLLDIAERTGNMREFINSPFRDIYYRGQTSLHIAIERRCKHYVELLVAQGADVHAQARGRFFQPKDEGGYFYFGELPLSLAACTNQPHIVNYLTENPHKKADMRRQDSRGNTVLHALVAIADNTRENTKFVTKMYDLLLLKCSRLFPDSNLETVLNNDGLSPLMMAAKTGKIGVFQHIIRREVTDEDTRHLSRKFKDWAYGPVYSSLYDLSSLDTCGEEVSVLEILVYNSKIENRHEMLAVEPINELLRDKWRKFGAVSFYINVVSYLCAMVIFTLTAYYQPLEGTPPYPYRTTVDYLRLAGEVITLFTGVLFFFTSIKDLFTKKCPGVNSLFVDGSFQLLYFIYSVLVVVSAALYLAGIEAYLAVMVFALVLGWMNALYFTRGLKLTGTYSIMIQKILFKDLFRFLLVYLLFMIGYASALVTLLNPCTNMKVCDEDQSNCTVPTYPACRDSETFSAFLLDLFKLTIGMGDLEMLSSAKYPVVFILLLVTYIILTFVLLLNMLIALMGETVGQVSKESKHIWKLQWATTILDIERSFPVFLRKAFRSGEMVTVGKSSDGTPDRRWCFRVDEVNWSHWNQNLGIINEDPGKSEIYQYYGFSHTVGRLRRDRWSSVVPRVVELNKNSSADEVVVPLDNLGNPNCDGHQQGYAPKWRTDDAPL
T1 sequence (Q9ERZ8 whole entry): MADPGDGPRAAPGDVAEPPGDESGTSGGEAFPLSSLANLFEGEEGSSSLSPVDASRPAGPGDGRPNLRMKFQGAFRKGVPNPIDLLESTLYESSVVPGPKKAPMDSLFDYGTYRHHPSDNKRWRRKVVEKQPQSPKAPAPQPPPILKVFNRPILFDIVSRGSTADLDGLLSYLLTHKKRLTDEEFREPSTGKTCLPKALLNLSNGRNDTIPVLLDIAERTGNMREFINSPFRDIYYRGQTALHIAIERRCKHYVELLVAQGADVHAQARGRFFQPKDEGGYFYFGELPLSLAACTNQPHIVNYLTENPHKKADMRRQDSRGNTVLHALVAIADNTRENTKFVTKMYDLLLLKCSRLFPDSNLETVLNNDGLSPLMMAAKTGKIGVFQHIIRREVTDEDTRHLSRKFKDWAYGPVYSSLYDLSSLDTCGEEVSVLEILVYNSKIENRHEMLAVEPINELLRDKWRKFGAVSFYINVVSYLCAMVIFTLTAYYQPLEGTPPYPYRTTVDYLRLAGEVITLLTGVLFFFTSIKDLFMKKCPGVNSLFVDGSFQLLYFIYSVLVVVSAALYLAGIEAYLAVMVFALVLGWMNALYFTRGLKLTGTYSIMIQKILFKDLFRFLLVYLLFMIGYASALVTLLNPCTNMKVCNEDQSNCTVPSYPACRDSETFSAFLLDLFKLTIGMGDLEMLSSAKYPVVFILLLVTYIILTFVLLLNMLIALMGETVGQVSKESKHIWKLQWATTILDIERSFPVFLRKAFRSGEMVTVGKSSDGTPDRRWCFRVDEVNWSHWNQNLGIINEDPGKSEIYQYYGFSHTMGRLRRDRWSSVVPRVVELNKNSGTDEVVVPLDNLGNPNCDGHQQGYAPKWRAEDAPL
T3 sequence (A0A8I3PAV3 1-828): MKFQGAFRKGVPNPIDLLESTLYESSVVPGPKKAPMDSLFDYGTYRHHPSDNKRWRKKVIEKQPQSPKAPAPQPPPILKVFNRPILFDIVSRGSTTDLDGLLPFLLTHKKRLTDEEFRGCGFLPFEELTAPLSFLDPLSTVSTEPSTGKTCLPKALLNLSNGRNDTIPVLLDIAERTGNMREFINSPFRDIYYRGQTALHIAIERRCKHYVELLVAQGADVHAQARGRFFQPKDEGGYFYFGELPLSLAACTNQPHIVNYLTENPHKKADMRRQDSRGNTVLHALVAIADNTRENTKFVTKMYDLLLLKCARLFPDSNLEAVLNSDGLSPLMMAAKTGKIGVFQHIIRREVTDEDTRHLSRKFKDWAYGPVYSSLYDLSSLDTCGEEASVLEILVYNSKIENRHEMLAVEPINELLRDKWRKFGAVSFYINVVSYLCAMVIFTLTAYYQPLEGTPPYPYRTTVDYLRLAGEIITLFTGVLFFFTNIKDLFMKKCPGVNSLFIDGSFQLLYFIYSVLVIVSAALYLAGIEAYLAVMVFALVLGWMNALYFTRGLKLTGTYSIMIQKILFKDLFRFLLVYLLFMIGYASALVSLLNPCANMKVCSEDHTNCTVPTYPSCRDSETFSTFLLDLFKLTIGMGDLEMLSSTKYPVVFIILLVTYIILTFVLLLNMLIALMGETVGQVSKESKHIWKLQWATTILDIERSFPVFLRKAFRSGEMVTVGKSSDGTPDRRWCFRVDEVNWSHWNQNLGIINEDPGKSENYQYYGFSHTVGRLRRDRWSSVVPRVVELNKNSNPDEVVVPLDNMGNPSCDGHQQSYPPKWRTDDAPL

Question: Which cardiogenic pulmonary edema (TRPV4 [1]) does the source give for `O=C(NC1(c2ccccc2)CC1)c1c(CN2CCC(N3CCCCC3)CC2)c(-c2cccc(C(F)(F)F)c2)nc2cc(Br)ccc12` [GSK2193874] here?
Answer: prevents cardiogenic pulmonary edema

Question: And the “pulmonary vascular leakage and lung edema development” value (TRPV4 [2])?
Answer: prevent pulmonary vascular leakage and lung edema development

Question: What about the cardiogenic pulmonary edema (TRPV4 [3]) of the same compound?
Answer: prevents cardiogenic pulmonary edema

Question: What about the cardiogenic pulmonary edema (TRPV4 [4]) of the same compound?
Answer: prevents cardiogenic pulmonary edema

Question: Which “intracellular calcium in response to 4α-PDD” value (TRPV4 [5]; HUVE cells treated with either control or CD98 siRNA, 4α-PDD 10 μM) does the source give for `CCCCCCCCCC(=O)O[C@@H]1[C@@H](C)[C@@]2(O)[C@@H](C=C(CO)C[C@@]3(O)C(=O)C(C)=C[C@@H]23)[C@@H]2C(C)(C)[C@]12OC(=O)CCCCCCCCC` [4α-PDD, 4α-phorbol 12, 13-didecanoate] here?
Answer: rapid increase in intracellular calcium

Question: Which “actin rearrangements after mechanical strain” value (HUVE cells [6]; HUVE cells overexpressing high homology domain of CD98 vs vector) does the source give for “high homology domain of CD98: domain of CD98 having the sequence of SEQ ID NO: 1; N-terminal region highly conserved from Drosophila to mammals (KFTGLSKEELLKVAGSPGWVRTRWALLLLFWLGWLGMLAGAVVIIVRAPRC)” here?
Answer: didn't show actin rearrangements

Question: What about the “β1-integrin binding to TRPV4” value [7] of the same compound?
Answer: decreased

Question: What about the “β1-integrin binding to TRPV4” value ([7]; listed as high homology domain) of the same compound?
Answer: inhibited

Question: What does the source list for “CD98 siRNA: human CD98 siRNA duplexes: 5′-GAAUGGUCUGGUGAAGAUC-3′ (SEQ ID NO: 21) and 5′-GAUCUUCACCAGACCAUUC-3′ (SEQ ID NO: 22) (listed as RNA, chemistry not given here; listed as Homo sapiens)”?
Answer: calcium influx of TRPV4 activation by chemical treatment (TRPV4 [5]; HUVE cells, CD98 siRNA vs control siRNA): not inhibited; also recorded: not by chemical activators; cell migration in scratch wound assay (HUVE cells [8]): normally restored; also recorded: did not interfere with cell migration; association (binding) of TRPV4 and β1-integrin [9]: can't bind to β1-integrin; also recorded: decreased association of TRPV4 and β1-integrin; also recorded: greatly reduced the amount of the binding between β1-integrin and TRPV4; transient increase in intracellular calcium after force application (mechanical activation of TRPV4) (TRPV4 [10]): inhibited; also recorded: didn't show this response; also recorded: inhibits calcium influx; stress fiber realignment (actin rearrangement) induced by cyclic strain (HUVE cells [6]; HUVE cells, CD98 siRNA vs control siRNA, 20% uniaxial cyclic strain, 2 hours): inhibited; also recorded: abolished; TRPV4 localization at focal adhesions (HUVE cells [11]): can't localize at focal adhesion; also recorded: loss of TRPV4 from focal adhesions; also recorded: prevented; also recorded: greatly reduced the amount of both CD98 and TRPV4 within focal adhesions; recruitment of integrins or vinculin to focal adhesions (HUVE cells [11]): no effect; TRPV4 expression (TRPV4 [12]): not decreased
